Measurements published in US9187726B2, “Culturing a microorganism in a medium with an elevated level of a carboxylate counterion source” (ExxonMobil Research and Engineering Company, priority 2010, dated 2015).

How the values were obtained:
[1] = tested on: Synechocystis sp. PCC 6803; test: Growth in calcium-enhanced media up to about one hundred times BG-11 calcium; assay type: cell-based; conditions: calcium up to about one hundred times standard BG-11 (up to ~25 mM)
Experimental: For large-scale production of fatty acids, calcium (and/or magnesium) supplementation would allow for fatty acids to accumulate during a production phase to be harvested one or more times in a non-continuous mode. Calcium concentrations up to about one hundred times the concentration of calcium in standard BG-11 medium (that is, up to ˜25 mM) have been tested on Synechocystis sp.

PH-SGI-E-0159 = test: Long-term effect of calcium addition on fatty acid-producing strain, one copy Cc1FatB1; assay type: cell-based, Synechocystis sp. PCC 6803; conditions: with or without extra calcium addition
Description: (§1) FIG. 2 provides data on the growth of genetically modified cyanobacterial strains producing free fatty acids in calcium-supplemented media. FIG. 2a is a graph showing the post-IPTG induction growth of cultures (as measure by OD at 730 nm) of Synechocystis PCC 6803 transformed with one (PH-SGI-E-0159-1; “159”) or three (PH-SGI-E-0166-1; “166”) copies of the Cc1FatB1 Cuphea carthagenensis acyl-ACP thioesterase (diamonds, strain 159 in standard BG-11 media; squares, strain 159 in standard BG-11 media supplemented to 10-fold the amount of calcium of BG-11 (˜2.5 mM); triangles, cyanobacterial strain 166 in standard BG-11 media; circles, strain 166 in standard BG-11 media supplemented to 10-fold the amount of calcium of BG-11 (˜2.5 mM)). FIG. 2b is a graph showing the post-IPTG induction free fatty acid production in mg/L of cultures of Synechocystis strains transformed with one (PH-SGI-E-0159-1; “159”) or three (PH-SGI-E-0166-1; “166”) copies of the Cc1FatB1 Cuphea carthagenensis acyl-ACP thioesterase (diamonds, strain 159 in standard BG-11 media; squares, strain 159 in standard BG-11 media supplemented to 10-fold the amount of calcium of BG-11 (˜2.5 mM); triangles, cyanobacterial strain 166 in standard BG-11 media; circles, strain 166 in standard BG-11 media supplemented to 10-fold the amount of calcium of BG-11 (˜2.5 mM)). […]

[2] = tested on: SGI-004 Synechococcus strain; test: Tolerance to free fatty acids in media with increased calcium and magnesium; assay type: cell-based; conditions: for effect on free fatty acid tolerance / viability: added to 2X and 4X of standard BG-11
Experimental: (§2) The Synechocystis sp. PCC 6803 strain and the SGI-004 Synechococcus strain were both tested to see if calcium and/or magnesium could alleviate the toxic effects of free fatty acid in the media. BG-11 media was used to culture the cells in multiwall plates. Calcium (CaCl2) and magnesium (MgCl2) were added alone and in combination to achieve a concentration two-fold (2×) and four-fold (4×) that of standard BG-11 media. […] PCC 6803. (Table 3). […] At a concentration double that of the BG-11 recipe (approximately 0.5 mM), calcium added a tolerance of up to about 100 mg/L more of free fatty acid for both of the strains.

[3] = tested on: Synechocystis sp. PCC 6803; test: as above; assay type: cell-based; conditions: for effect on free fatty acid tolerance: added to 2X and 4X of standard BG-11
Experimental: as §2

PH-SGI-E-0166 = test: Long-term effect of calcium addition on fatty acid-producing strain, three copies Cc1FatB1; assay type: cell-based, Synechocystis sp. PCC 6803; conditions: ~10× calcium concentration; culture without extra calcium completely bleached after ~12 days of IPTG induction
Description: as §1

[4] = calcium at double the BG-11 recipe (approximately 0.5 mM)

| Compound | growth defects in calcium-enhanced media [1] | time cultures continued to grow and stayed green (PH-SGI-E-0159) | effect on free fatty acid tolerance / viability [2] | added tolerance, more free fatty acid tolerated [2, 4] | effect on free fatty acid tolerance [3] | added tolerance, more free fatty acid tolerated [3, 4] | culture survival (PH-SGI-E-0166) |
| --- | --- | --- | --- | --- | --- | --- | --- |
| [Ca+2].[Cl-].[Cl-] [calcium, calcium chloride] | no growth defects | at least 31 days | increased free fatty acid tolerance | up to 100 mg/L | increased free fatty tolerance | up to 100 mg/L | survived |
| [Cl-].[Cl-].[Mg+2] [magnesium, MgCl2] |  |  | no discernible protective effect |  | increased free fatty tolerance |  |  |
